The values that follow are results of earlier work, collected in patent US20260263368A1, “DOUBLE-RELEASE THREE-LAYERED BR[…] AND PREPARATION METHOD THEREOF” (TAIZHOU OVERSEAS PHARMACEUTICALS, LTD., priority 2023, published 2026).

The conditions of the data set: background statement.

Regarding `CCC[C@@H]1CC(=O)N([C@@H](CC)C(N)=O)C1` [Brivaracetam, (2S)-2-[(4R)-2-oxo-4-propyltetrahydro-1H-pyrrol-1-yl]butanamide], the water solubility entry is on record as “good water solubility”.
